The target in this experiment is T1, human mGluR5a receptor (Homo sapiens, UniProt P41594).
T1 construct: cDNA subcloned into pcDNA3.1(-)
The experiment is described as follows: Cell-based functional Ca2+ mobilization assay (FDSS), potentiation of glutamate EC20 response. Conditions: for pEC50 / EC50: HEK cells transfected with human mGluR5 (H10H or H12H), in presence of EC20 glutamate; for EC50: read-out: EC50; for Emax (%) / Emax: maximum % effect in concentration-response curve, as percent of response to maximally effective glutamate. The method, then:
Human embryonic kidney (HEK) cells transfected with rat mGluR5 were plated in clear bottom assay plates for assay in a Functional Drug Screening System (FDSS). In the alternative assay, HEK cells transfected with human mGluR5 were plated for assay in the FDSS. In some cases the HEK cells transfected with human mGluR5 were the H10H cell line. Alternatively, the HEK cells transfected with human mGluR5 were the H12H cell line. […] The cells were loaded with a Ca^2+-sensitive fluorescent dye (e.g., Fluo-4), and the plates were washed and placed in the FDSS instrument. After establishment of a fluorescence baseline for twelve seconds, the compounds of the present invention were added to the cells, and the response in cells was measured. Alternatively, in various further aspects, after establishment of a fluorescence baseline for about three seconds, the compounds of the present invention were added to the cells, and the response in cells was measured. Five minutes later, an mGluR5 agonist (e.g., glutamate, 3,5-dihydroxyphenylglycine, or quisqualate) was added to the cells, and the response of the cells was measured.
The above described assay operated in two modes. In the first mode, a range of concentrations of the present compounds were added to cells, followed by a single fixed concentration of agonist. If a compound acted as a potentiator, an EC50 value for potentiation and a maximum extent of potentiation by the compound at this concentration of agonist was determined by non-linear curve fitting. In the second mode, several fixed concentrations of the present compounds were added to various wells on a plate, followed by a range of concentrations of agonist for each concentration of present compound; the EC50 values for the agonist at each concentration of compound were determined by non-linear curve fitting. A decrease in the EC50 value of the agonist with increasing concentrations of the present compounds (a leftward shift of the agonist concentration-response curve) is an indication of the degree of mGluR5 potentiation at a given concentration of the present compound. An increase in the EC50 value of the agonist with increasing concentrations of the present compounds (a rightward shift of the agonist concentration-response curve) is an indication of the degree of mGluR5 antagonism at a given concentration of the present compound. The second mode also indicates whether the present compounds also affect the maximum response to mGluR5 to agonists.
The mGluR5 activity was determined using the metabotropic glutamate receptor activity assays in human embryonic kidney cells as described herein, wherein the human embryonic kidney cells were transfected with human mGluR5. The compounds in Table 1 were synthesized with methods identical or analogous to those shown herein. The requisite starting materials were commercially available, described in the literature, or readily synthesized by one skilled in the art of organic synthesis. The compound number given in Table I corresponds to the compound number in Table II and the structure given therein.
Human mGluR5a cDNA in pCMV6-XL6 mammalian expression plasmid was purchased from OriGene Technologies, Inc. (catalogue number SC326357) and subcloned into pcDNA3.1(−). Human embryonic kidney (HEK) 293A cells were then transfected with human mGluR5a pcDNA3.1(−) using LipofectAmine-2000 (Invitrogen) and monoclones were selected and tested for functional response using a Ca^2+ mobilization assay. Monoclones were named for the species (“H” for human) plus the location on the plate (e.g. “10H”).
HEK cells transfected with the human mGluR5a receptor (H10H or H12H cell line) were plated at 15,000 cells/well in clear-bottomed poly-D-lysine-coated assay plates (BD Falcon) in glutamate-glutamine-free growth medium and incubated overnight at 37° C. and 5% CO2.
On the technique in general: Calcium assays in cells follow changes in intracellular calcium, usually with a dye or a luminescent sensor.

The structures appear in SMILES notation.

T1 sequence (P41594 21-1180 isoform P41594-2 limits assumed): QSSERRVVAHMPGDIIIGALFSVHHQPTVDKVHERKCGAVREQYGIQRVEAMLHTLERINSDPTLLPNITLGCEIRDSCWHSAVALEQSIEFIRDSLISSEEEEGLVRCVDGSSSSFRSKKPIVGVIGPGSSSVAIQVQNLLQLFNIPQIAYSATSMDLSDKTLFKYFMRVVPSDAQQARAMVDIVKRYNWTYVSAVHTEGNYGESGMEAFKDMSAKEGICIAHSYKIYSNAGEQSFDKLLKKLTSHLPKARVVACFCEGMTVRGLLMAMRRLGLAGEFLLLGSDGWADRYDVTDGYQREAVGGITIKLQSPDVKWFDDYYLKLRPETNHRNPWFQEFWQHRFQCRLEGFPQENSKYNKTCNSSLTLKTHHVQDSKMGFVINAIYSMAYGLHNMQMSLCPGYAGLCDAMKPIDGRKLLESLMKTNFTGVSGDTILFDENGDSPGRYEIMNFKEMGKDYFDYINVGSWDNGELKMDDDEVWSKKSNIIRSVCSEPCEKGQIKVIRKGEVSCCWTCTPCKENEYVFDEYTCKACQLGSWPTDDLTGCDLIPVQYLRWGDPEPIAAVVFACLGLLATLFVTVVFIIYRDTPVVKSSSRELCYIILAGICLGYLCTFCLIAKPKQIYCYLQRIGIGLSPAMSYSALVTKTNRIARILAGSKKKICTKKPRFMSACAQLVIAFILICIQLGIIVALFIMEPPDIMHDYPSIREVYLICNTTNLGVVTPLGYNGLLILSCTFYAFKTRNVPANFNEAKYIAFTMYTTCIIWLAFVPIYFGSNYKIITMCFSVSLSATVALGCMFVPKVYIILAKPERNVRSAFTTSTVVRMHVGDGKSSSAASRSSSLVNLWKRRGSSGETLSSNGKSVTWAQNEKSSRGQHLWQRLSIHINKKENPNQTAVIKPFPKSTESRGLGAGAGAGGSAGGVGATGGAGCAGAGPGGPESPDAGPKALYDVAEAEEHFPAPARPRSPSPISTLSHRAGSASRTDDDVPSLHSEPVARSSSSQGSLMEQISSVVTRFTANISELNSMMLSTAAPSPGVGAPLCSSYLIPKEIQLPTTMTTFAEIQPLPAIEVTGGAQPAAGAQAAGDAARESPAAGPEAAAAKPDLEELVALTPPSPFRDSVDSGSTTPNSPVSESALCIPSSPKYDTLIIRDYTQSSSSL

One may read the pEC50 as the negative decadic logarithm of the EC50, by convention in mol/L. What is called EC50 is the concentration that produces a half-maximal response. In the case of `COc1ccc(N2CCn3nc(COc4ccccc4)cc3C2=O)cc1` [Example 50], the negative-log EC50 (pEC50) is on record as 6.92, the EC50 came out at 120 nM and the “Emax (%)” value amounted to 58%.
`COc1cc(N2CCn3nc(COc4ccccc4)cc3C2=O)ccc1F` [Example 51]: the negative logarithm of the EC50 (pEC50) was determined as 7.26, the EC50 turned out to be 55 nM and the “Emax (%)” value is 61%.
Consider `Cc1cc(N2CCn3nc(COc4ccccc4)cc3C2=O)ccc1F` [Example 52], for which the pEC50 came out at 7.58, the EC50 was found to be 26 nM and the “Emax (%)” value is 68%.
For `Cc1cccc(N2CCn3nc(COc4ccccc4)cc3C2=O)c1C` [Example 56], the pEC50 turned out to be 7.62, the concentration giving a half-maximal response (EC50) is 24 nM and the “Emax (%)” value stood at 69%.
The like results for `CCOc1ccccc1N1CCn2nc(COc3ccccc3)cc2C1=O` [Example 57] were, in that order, 6.82, 150 nM and 67%.
Regarding `COc1ccc(N2CCn3nc(COc4ccccc4)cc3C2=O)cc1F` [Example 58], the pEC50 is recorded as 6.92, the EC50 is 120 nM and the “Emax (%)” value was 58%.
For the compound `Cc1cc(F)ccc1N1CCn2nc(COc3ccccc3)cc2C1=O` [Example 60], the negative-log EC50 (pEC50) is recorded as 7.40, the EC50 came out at 40 nM and the “Emax (%)” value is given as 66%.
In the case of `Cc1ccc(F)cc1N1CCn2nc(COc3ccccc3)cc2C1=O` [Example 61], the negative-log EC50 (pEC50) is reported as 7.19, the EC50 turned out to be 65 nM and the “Emax (%)” value is reported as 68%.
As to `Cc1ccc(N2CCn3nc(COc4ccccc4)cc3C2=O)cc1F` [Example 62], the negative-log EC50 (pEC50) was 7.27, the concentration giving a half-maximal response (EC50) was found to be 53 nM and the “Emax (%)” value turned out to be 60%.
As to `COCc1ccccc1N1CCn2nc(COc3ccccc3)cc2C1=O` [Example 63], the pEC50 is 6.37, the EC50 stood at 430 nM and the “Emax (%)” value came out at 68%.
Regarding `O=C1c2cc(COc3ccccc3)nn2CCN1c1cccc(C2CC2)n1` [Example 66], the pEC50 came to 7.03, the EC50 is 93 nM and the “Emax (%)” value turned out to be 72%.
Consider `COc1nc(N2CCn3nc(COc4ccccc4)cc3C2=O)ccc1F` [Example 73], for which the pEC50 is reported as 7.64, the EC50 was 23 nM and the “Emax (%)” value amounted to 67%.
Take `O=C1c2cc(COc3ccccc3)nn2CCN1c1cccc(CCF)n1` [Example 75]: the pEC50 is 6.69, the half-maximal effective concentration (EC50) worked out at 204 nM and the “Emax (%)” value amounted to 68%.
In the case of `O=C1c2cc(COc3ccccc3)nn2CCN1c1ncccn1` [Example 77], the negative-log EC50 (pEC50) is under 5.00, the EC50 was over 10000 nM and the “Emax (%)” value amounted to 42%.
With `COc1cccnc1N1CCn2nc(COc3ccccc3)cc2C1=O` [Example 79], the negative-log EC50 (pEC50) is 5.66, the EC50 is 2190 nM and the “Emax (%)” value is reported as 48%.
Regarding `O=C1c2cc(COc3ccccc3)nn2CCN1c1ncccc1F` [Example 81], the pEC50 was 6.26, the EC50 turned out to be 550 nM and the “Emax (%)” value amounted to 67%.
As to `Cc1ccnc(N2CCn3nc(COc4ccccc4)cc3C2=O)n1` [Example 82], the negative logarithm of the EC50 (pEC50) was 5.81, the EC50 came to 1550 nM and the “Emax (%)” value is on record as 61%.
A word on the Emax: it is the maximal effect, on the per cent scale that the assay sets. On to `COCCOc1cccc(N2CCn3nc(COc4ccccc4)cc3C2=O)n1` [Example 85], for which the EC50 worked out at 437 nM and the Emax turned out to be 72%.
Consider `Cc1cc(F)cnc1N1CCn2nc(COc3ccccc3)cc2C1=O` [Example 86], for which the negative-log EC50 (pEC50) is listed as 6.69, the EC50 came to 204 nM and the “Emax (%)” value turned out to be 73%.
In the case of `Cc1ccc(F)c(N2CCn3nc(COc4ccccc4)cc3C2=O)n1` [Example 88], the pEC50 is reported as 6.75, the 50% effective concentration (EC50) stood at 178 nM and the “Emax (%)” value is on record as 72%.
Regarding `COc1ccc(N2CCn3nc(COc4ccccc4)cc3C2=O)nn1` [Example 89], the pEC50 is recorded as under 5.00, the concentration for a half-maximal effect (EC50) is over 10000 nM and the “Emax (%)” value amounted to 75%.
With `COc1nc(N2CCn3nc(COc4ccccc4)cc3C2=O)ncc1F` [Example 91], the pEC50 was 7.19, the concentration for a half-maximal effect (EC50) was 65 nM and the “Emax (%)” value came out at 71%.
For `Cc1cncc(N2CCn3nc(COc4ccccc4)cc3C2=O)n1` [Example 92] the same measures were 6.51, 309 nM and 71%.
`Cc1cnnc(N2CCn3nc(COc4ccccc4)cc3C2=O)c1` [Example 93]: the negative-log EC50 (pEC50) is listed as under 4.52, the 50% effective concentration (EC50) is over 30200 nM and the “Emax (%)” value turned out to be 29%.
For `Cc1nccc(N2CCn3nc(COc4ccccc4)cc3C2=O)n1` [Example 94], the negative-log EC50 (pEC50) stood at 6.29, the concentration for a half-maximal effect (EC50) worked out at 513 nM and the “Emax (%)” value worked out at 65%.
Consider `N#Cc1cccc(N2CCn3nc(COc4ccccc4)cc3C2=O)n1` [Example 95], for which the pEC50 was 6.82, the 50% effective concentration (EC50) came out at 150 nM and the “Emax (%)” value stood at 54%.
Consider `COc1nc(N2CCn3nc(COc4ccccc4)cc3C2=O)ncc1C` [Example 97], for which the negative-log EC50 (pEC50) was 7.01, the EC50 turned out to be 98 nM and the “Emax (%)” value is 68%.
For `COc1nc(C)cc(N2CCn3nc(COc4ccccc4)cc3C2=O)n1` [Example 98] the same measures were 6.13, 741 nM and 63%.
`COc1cnc(N2CCn3nc(COc4ccccc4)cc3C2=O)cn1` [Example 101]: the negative logarithm of the EC50 (pEC50) turned out to be 6.53, the half-maximal effective concentration (EC50) worked out at 295 nM and the “Emax (%)” value is 78%.
Turning to `COc1nccnc1N1CCn2nc(COc3ccccc3)cc2C1=O` [Example 103], the pEC50 is recorded as 7.03, the EC50 is 93 nM and the “Emax (%)” value is given as 72%.
With `COc1ncc(C)c(N2CCn3nc(COc4ccccc4)cc3C2=O)n1` [Example 106], the half-maximal effective concentration (EC50) came to 389 nM and the maximum response (Emax) was found to be 53%.
Regarding `COc1ccc(C)c(N2CCn3nc(COc4ccccc4)cc3C2=O)n1` [Example 109], the pEC50 was determined as 7.13, the concentration for a half-maximal effect (EC50) came out at 74 nM and the “Emax (%)” value amounted to 63%.
As to `COc1nccc(N2CCn3nc(COc4ccccc4)cc3C2=O)n1` [Example 110], the negative logarithm of the EC50 (pEC50) was determined as 6.70, the EC50 was found to be 200 nM and the “Emax (%)” value is on record as 68%.
`COc1cncc(N2CCn3nc(COc4ccccc4)cc3C2=O)n1` [Example 112]: the negative-log EC50 (pEC50) came out at 6.98, the concentration for a half-maximal effect (EC50) was found to be 105 nM and the “Emax (%)” value turned out to be 69%.
With `COc1ncncc1N1CCn2nc(COc3ccccc3)cc2C1=O` [Example 113], the EC50 worked out at 724 nM and the Emax worked out at 57%.
With `COc1ccnc(N2CCn3nc(COc4ccccc4)cc3C2=O)c1` [Example 115], the pEC50 was 5.96, the concentration for a half-maximal effect (EC50) is 1100 nM and the “Emax (%)” value was 66%.
As for `COc1cncnc1N1CCn2nc(COc3ccccc3)cc2C1=O` [Example 118], the pEC50 is on record as 5.69, the concentration giving a half-maximal response (EC50) amounted to 2000 nM and the “Emax (%)” value amounted to 67%.
